In article PMC11472313, “Development of Fragment-Based Inhibitors of the Bacterial Deacetylase LpxC with Low Nanomolar Activity” (Journal of Medicinal Chemistry, 2024):
Converted amounts (≈) assume the structure as drawn.

What was measured:
[1] = system: P. aeruginosa LpxC (PaLpxC); details: cited from earlier work
LpxC–9 complex = assay: NMR-ILOE (interligand NOESY) of fragment hits with LpxC and 9; details: fragment hits binding the LpxC–9 complex by STD and WaterLogsy; 6 μM LpxC
Protocol: In order to find fragments specifically addressing the UDP-binding pocket, which can be linked to the LpxC inhibitors, a fragment screen was performed against LpxC bound to 9. First, 650 fragments in cocktails of five were tested for binding to the LpxC–9 complex using STD-NMR and WaterLogsy experiments. Then, fragment hits identified as potential binders were tested one by one against the LpxC–9 complex by STD-NMR and WaterLogsy experiments performed under identical experimental conditions. A total of 97 fragment hits were identified as binders, leading to a hit rate of 15%.
Then, NMR-ILOE experiments were performed with selected fragment hits in the presence of LpxC and the unsubstituted hydroxamic acid 9. This allowed the identification of fragments that bind in the enzyme’s UDP-binding pocket near the methylene group in the α-position of the inhibitor’s hydroxamate moiety. Weak interligand NOESY peaks were observed between inhibitor 9 and nine fragments. By contrast, no interligand NOESY peaks were observed between compound 9 and the other ten fragments. […] Unexpectedly, we also observed interligand NOESY between the fragment protons and protons of the morpholino moiety.
Standard 1D and STD NMR spectra were acquired at 20 °C with a Bruker 600 MHz NMR spectrometer equipped with a 5 mm cryoprobe. Parameters for the STD experiments (saturation frequency and saturation time) were identical for all samples. […] STD saturation time was 2 s. WaterLOGSY mixing time was 1.5 s. Two NOESY experiments were recorded with mixing times of 0.6 and 0.3 s. STD and WaterLOGSY spectra were recorded with the same NMR tubes containing 3 μM LpxC, compound 9 at 500 μM, and fragments at 500 μM. For NOESY experiments, NMR tubes contained 6 μM LpxC.
Temperature was set to 293 K for all NMR experiments.

E. coli LpxC C63A = target: T1, E. coli LpxC C63A (Escherichia coli, UniProt P0A725, C63A); assay: fluorescence-based E. coli LpxC C63A enzyme inhibition assay; assay type: biochemical; details: Ki E. coli LpxC C63A, from IC50 via Cheng–Prusoff
T1 construct: made in house; host or cells: E. coli BL21(DE3)
T1 sequence (P0A725 whole entry C63A): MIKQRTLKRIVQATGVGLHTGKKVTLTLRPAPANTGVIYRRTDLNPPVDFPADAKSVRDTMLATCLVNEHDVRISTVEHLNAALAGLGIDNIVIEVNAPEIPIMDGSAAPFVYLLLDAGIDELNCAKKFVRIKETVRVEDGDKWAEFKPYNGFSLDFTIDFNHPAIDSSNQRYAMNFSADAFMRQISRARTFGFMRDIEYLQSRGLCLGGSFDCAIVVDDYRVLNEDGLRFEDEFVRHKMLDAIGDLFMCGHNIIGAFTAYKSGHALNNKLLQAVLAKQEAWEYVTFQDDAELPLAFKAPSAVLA
Protocol: In order to determine the inhibitory activities of the compounds of interest toward E. coli LpxC, a fluorescence-based enzyme assay was deployed, in which the formed deacetylated natural product UDP-3-O-[(R)-3-hydroxymyristoyl]glucosamine (2) is transformed into a fluorescent isoindole with o-phthaldialdehyde and 2-mercaptoethanol.[48],[49] […] The KM of E. coli LpxC C63A was determined experimentally using a mass spectrometry-based LpxC assay (Figure S8, Supporting Information, vide infra).
A fluorescence-based microplate assay for LpxC activity was performed as described by Clements et al.[48] The wells in a black, nonbinding, 96-well fluorescence microplate (Greiner Bio One, Frickenhausen) were filled with 93 μL of 26.9 μM UDP-3-O-[(R)-3-hydroxymyristoyl]-N-acetylglucosamine in assay buffer [40 mM sodium morpholinoethanesulfonic acid (pH 6.0), 80 μM dithiothreitol, 0.02% Brij 35]. In order to assay the inhibitors at final concentrations from 20 nM up to 20 μM, 2 μL of a respective dilution of the compounds in DMSO were added. The addition of 5 μL of a solution of purified LpxC (10 μg mL^–1) in assay buffer led to final concentrations of 25 μM UDP-3-O-[(R)-3-hydroxymyristoyl]-N-acetylglucosamine, 15 nM E. coli LpxC C63A, 2% DMSO, and from 20 nM up to 20 μM inhibitor. The microplate was incubated for 30 min at 37 °C in a plate shaker. Then, the biochemical reaction was stopped by adding 40 μL of 0.625 M sodium hydroxide. The reaction mixture was further incubated for 10 min and neutralized by adding 40 μL of 0.625 M acetic acid. The deacetylated product UDP-3-O-[(R)-3-hydroxymyristoyl]glucosamine was converted into a fluorescing isoindole by adding 120 μL of an o-phthaldialdehyde-2-mercaptoethanol solution, which was prepared by dissolving 10 mg of o-phthaldialdehyde in 1 mL of methanol, diluting the mixture with 24 mL of a sodium borate buffer (0.1 M), and finally adding 2.5 μL of 2-mercaptoethanol.[49] Fluorescence was measured with a TriStar^2 S LB 942 plate reader (Berthold, Bad Wildbad) at 340 nm excitation and 460 nm emission wavelengths. Each assay was performed at least three times on separate days. The IC50 values were calculated via Probit-log concentration graphs with the aid of the software Origin and were subsequently converted into Ki values using the Cheng–Prusoff equation.[75],[76]

P. aeruginosa LpxC = target: T2, P. aeruginosa LpxC (Pseudomonas aeruginosa, UniProt P47205); assay: LC–MS/MS-based P. aeruginosa LpxC enzyme inhibition assay; assay type: biochemical; details: from IC50 via Cheng–Prusoff
T2 construct: made in house; host or cells: E. coli BL21(DE3)
T2 sequence (P47205 whole entry): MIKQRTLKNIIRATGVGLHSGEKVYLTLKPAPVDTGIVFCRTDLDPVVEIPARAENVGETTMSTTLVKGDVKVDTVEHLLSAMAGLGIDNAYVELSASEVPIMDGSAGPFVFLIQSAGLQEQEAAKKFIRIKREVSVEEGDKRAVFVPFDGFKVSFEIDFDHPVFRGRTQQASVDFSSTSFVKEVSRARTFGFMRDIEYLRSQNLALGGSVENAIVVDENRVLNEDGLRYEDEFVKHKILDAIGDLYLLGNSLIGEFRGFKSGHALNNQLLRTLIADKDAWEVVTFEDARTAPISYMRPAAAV
Excerpt: As Pseudomonas aeruginosa is one of the so-called ESKAPE pathogens,[56] being the leading cause of nosocomial infections throughout the world, and carbapenem-resistant P. aeruginosa strains were assigned the highest priority (priority 1: critical) within the “WHO priority pathogens list for R&D of new antibiotics” (WHO 2017),[57] new antibacterial agents combating these bacteria are urgently required. Thus, our newly developed LpxC inhibitors should be tested for inhibitory activity toward P. aeruginosa LpxC, which shares 57% sequence identity with E. coli LpxC.[28] Therefore, a liquid chromatography with tandem mass spectrometry (LC–MS/MS)-based P. aeruginosa LpxC assay was established. […] After incubation and subsequent termination of the enzymatic reaction, the samples were subjected to LC–MS/MS analysis. Following the chromatographic separation of substrate 1 and deacetylated product 2, the eluted compounds were ionized and subjected to fragmentation. Three multiple reaction monitoring (MRM) transitions were detected per compound [precursor ions: m/z (substrate 1) 832; m/z (deacetylated product 2) 790; product ions: m/z (product 1) 385, collision energy = −60 V; m/z (product 2) 159, collision energy = −80 V; m/z (product 3) 79, collision energy = −140 V]. The MRM transitions 832 → 79 of substrate 1 and 790 → 79 of product 2 were used as quantifiers; the other mass transitions were used as qualifiers.
The protocol of the LC–MS/MS-based P. aeruginosa LpxC assay was based on the E. coli LpxC C63A enzyme assay. Compared to the fluorescence-based enzyme assay, the substrate was diluted 1:10 and the inhibitors were diluted 1:4.
The wells in a black, nonbinding, 96-well fluorescence microplate (Greiner Bio One, Frickenhausen) were filled with 93 μL of 2.69 μM UDP-3-O-[(R)-3-hydroxymyristoyl]-N-acetylglucosamine in assay buffer [50 mM KH2PO4/K2HPO4 (pH = 7.5), 80 μM dithiothreitol, 0.02% Brij 35]. In order to assay the inhibitors at final concentrations from 5 nM up to 5 μM, 2 μL of a respective dilution of the compounds in DMSO were added. The addition of 5 μL of a solution of purified P. aeruginosa LpxC (5 μg mL^–1) in assay buffer led to final concentrations of 2.5 μM UDP-3-O-[(R)-3-hydroxymyristoyl]-N-acetylglucosamine, 7.5 nM P. aeruginosa LpxC, 2% DMSO, and from 5 nM up to 5 μM inhibitor. The microplate was incubated for 30 min at 37 °C in a plate shaker. Then, the biochemical reaction was stopped by adding 40 μL of 0.625 M hydrochloric acid. The reaction mixtures were further incubated for 10 min, sealed, and stored at −80 °C until analysis.
LC–MS/MS-Analysis. The reaction mixtures were separated by ultrahigh performance liquid-chromatography (1290 II Infinity UHPLC, Agilent Technologies), and the eluted compounds were analyzed by mass spectrometry using electrospray ionization in negative ion mode with a triple quadrupole linear ion trap mass spectrometer (QTRAP 5500, AB Sciex LLC).
To analyze the eluted compounds by mass spectrometry, a MRM method was applied. The specific parameters of this method are given in Table S2 (Supporting Information). After detection and selection of the precursor ions (1: m/z 832; 2: m/z 790), both analytes were fragmented, leading to three identical product ions [m/z (product 1) 385, collision energy = −60 V; m/z (product 2) 159, collision energy = −80 V; m/z (product 3) 79, collision energy = −140 V]. The mass transitions 832 → 79 (substrate 1) and 790 → 79 (product 2) were used as quantifiers; the other mass transitions were used as qualifiers. The ratio between substrate 1 and product 2 was quantified by comparing the peak areas of the quantifiers. The percentual inhibition caused by each inhibitor concentration was determined with respect to the amount of the product formed in the noninhibited reaction after 30 min.
Each assay was performed at least two times on separate days. […]

E. coli BL21(DE3) [2] = assay: MIC, broth microdilution; assay type: cell-based; details: Escherichia coli, 20 h, 37 °C, LB
Protocol: (§1) Besides measuring the inhibitory activities toward E. coli LpxC C63A, the antibacterial activities of the synthesized hydroxamic acids were evaluated by determining their minimal inhibitory concentrations (MIC) in broth dilution tests as well as by performing disc diffusion assays (Table 1).
(§2) The MIC values of the compounds were determined by means of the microdilution method using 96-well plates.
(§3) The overnight suspension was diluted 1:1000 in fresh LB. 10 μL of a 2-fold dilution series of the compounds in DMSO and 90 μL of LB were dispensed to each well of a 96-well plate. Then, 100 μL of the inoculated medium was added, resulting in 5 × 10^5 cfu mL^–1, 5% DMSO, and a final concentration range of the test compounds between 64 and 0.016 μg mL^–1. The plates were incubated for 20 h at 37 °C. The MIC was defined as the lowest concentration of the compounds that prevented visible growth after incubation. Each assay was performed at least three times on separate days.

E. coli D22 [3] = assay: MIC, broth microdilution; assay type: cell-based; details: Escherichia coli, 20 h, 37 °C, LB
Protocol: as §1, §2, §3

E. coli BL21(DE3) [4] = assay: disc diffusion assay; assay type: cell-based; details: 0.15 μmol per 6 mm disc
Protocol: as §1
(§4) The disc diffusion assays against E. coli BL21(DE3) and the defective strain E. coli D22 were performed as follows: liquid cultures of the bacteria were grown overnight in lysogeny broth (LB)[73] at 37 °C and 200 rpm. 150 μL of an overnight cell suspension was spread evenly onto LB agar plates. 0.15 μmol of each compound (dissolved in 10 or 15 μL DMSO) were applied onto circular filter paper (Ø = 6 mm, Cytiva). Pure DMSO, serving as a negative control, and CHIR-090, serving as a positive control, were also spotted. The agar plates were incubated overnight at 37 °C, and the diameter of the zone of growth inhibition was measured for each compound. Each assay was performed at least three times on separate days.

E. coli D22 [5] = assay: disc diffusion assay; assay type: cell-based; details: 0.15 μmol per 6 mm disc
Protocol: as §1, §4

## CCc1ccc(-c2ccc(C(=O)N[C@H](C(=O)NO)[C@@H](C)NCC(=O)O)cc2)cc1 [7b]
[1]
  PaLpxC: IC50: 0.0004 mg/L

## c1ccc(C2NCCn3cccc32)cc1 (stereo not shown) [F8]
LpxC–9 complex
  Inter-Ligand NOESY peaks between the fragment and 9: no

## O=c1cc[nH]c(=O)[nH]1 [F16]
LpxC–9 complex
  Inter-Ligand NOESY peaks between the fragment and 9: no

## O=C(NC[C@@H](OCc1ccc(C#Cc2ccc(CN3CCOCC3)cc2)cc1)C(=O)NO)c1c[nH]c2ccccc12 [(R)-13h]
E. coli LpxC C63A
  Ki: 1.58 ± 0.216 µM
P. aeruginosa LpxC
  Ki: 0.631 ± 0.198 µM
E. coli BL21(DE3) [2]
  MIC: > 16 mg/L
E. coli D22 [3]
  MIC: 4 mg/L (≈ 7.24 µM)
E. coli BL21(DE3) [4]
  Inhibition zone E. coli BL21(DE3): ≤6 mm
E. coli D22 [5]
  Inhibition zone E. coli D22: 13.3 ± 1.0 mm

## c1ccc(Cn2ccnc2)cc1 [F19]
LpxC–9 complex
  Inter-Ligand NOESY peaks between the fragment and 9: yes
